According to BindingDB's records for patent US20250313563 (The Broad Institute, 2025):

Columns and labels:
[1] = molecular target: Glycogen synthase kinase-3 beta (Homo sapiens, UniProt P49841); assay: TR-FRET Assay
Protocol: (§1) The assay was performed in a white, 384 well, low volume, flat bottom plate (Grenier). […] The kinase activity was quenched with 2 μL of 250 mM EDTA. A 10 μL volume of 40 nM Strepavidin-d2, 2 nM Tb2+-pSer641 antibody in TR-FRET Detection Buffer (Invitrogen) was then added.

[2] = molecular target: Glycogen synthase kinase-3 alpha (Homo sapiens, UniProt P49840); assay: TR-FRET Assay
Chain of Glycogen synthase kinase-3 alpha (P49840 whole entry): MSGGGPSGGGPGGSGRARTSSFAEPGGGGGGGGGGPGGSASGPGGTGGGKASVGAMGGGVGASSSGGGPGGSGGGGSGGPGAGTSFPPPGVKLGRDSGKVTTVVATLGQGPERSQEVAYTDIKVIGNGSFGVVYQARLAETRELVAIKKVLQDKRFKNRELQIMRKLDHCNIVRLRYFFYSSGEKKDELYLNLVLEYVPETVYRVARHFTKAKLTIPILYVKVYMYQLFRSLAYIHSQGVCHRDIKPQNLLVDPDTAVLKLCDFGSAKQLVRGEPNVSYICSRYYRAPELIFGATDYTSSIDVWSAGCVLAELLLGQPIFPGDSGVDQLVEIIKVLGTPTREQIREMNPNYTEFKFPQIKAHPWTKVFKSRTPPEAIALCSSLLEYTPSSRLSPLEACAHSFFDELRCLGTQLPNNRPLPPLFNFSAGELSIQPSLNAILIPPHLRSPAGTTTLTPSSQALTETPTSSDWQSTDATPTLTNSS
Protocol: as §1

Chain of Glycogen synthase kinase-3 beta (P49841 whole entry): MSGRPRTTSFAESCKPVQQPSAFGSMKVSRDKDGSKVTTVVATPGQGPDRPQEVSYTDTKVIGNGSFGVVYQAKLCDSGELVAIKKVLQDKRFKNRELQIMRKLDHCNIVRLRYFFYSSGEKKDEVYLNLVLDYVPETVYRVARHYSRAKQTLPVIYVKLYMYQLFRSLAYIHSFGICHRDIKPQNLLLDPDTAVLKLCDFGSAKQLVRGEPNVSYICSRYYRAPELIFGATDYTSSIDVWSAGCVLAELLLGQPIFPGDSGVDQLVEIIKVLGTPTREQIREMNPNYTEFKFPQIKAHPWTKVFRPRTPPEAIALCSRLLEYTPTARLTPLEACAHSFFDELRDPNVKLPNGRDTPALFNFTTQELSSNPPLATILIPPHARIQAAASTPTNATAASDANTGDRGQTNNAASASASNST

SMILES | IC50 [1] [nM] | IC50 [2] [nM]
CCC1(c2cccc(C(C)C)c2)C2=CN=NC2NC2=C1C(=O)CC(C)(C)C2 (centres undefined) [US20250313563, Compound 801322] | 100 to 1000 | < 100
CCC1(c2cccc(COC)c2)C2=CN=NC2NC2=C1C(=O)CC(C)(C)C2 (centres undefined) [US20250313563, Compound 801323] | 100 to 1000 | < 100
CCC1(c2cccc(Br)c2)C2=C(CC(C)(C)CC2=O)NC2N=NC(C(F)(F)F)=C21 (centres undefined) [US20250313563, Compound 801324] | < 100 | < 100
CC(C)(C)CC1=C2C(N=N1)NC1=C(C(=O)CC(C)(C)C1)[C@@]21CCc2cccc(F)c21 (some centres undefined) [US20250313563, Compound 801352] | < 100 | 100 to 1000
CC1(C)CC(=O)C2=C(C1)NC1N=NC(C(F)(F)F)=C1C21CCc2c(F)cccc21 (centres undefined) [US20250313563, Compound 801356] | < 100 | < 100
CC1(C)CC(=O)C2=C(C1)NC1=C(CN=N1)C21CCc2c(F)cccc21 (centres undefined) [US20250313563, Compound 801357] | > 1670 | 100 to 1000
CC1(C)CC(=O)C2=C(C1)NC1N=NC(Br)=C1C21CCc2c(F)cccc21 (centres undefined) [US20250313563, Compound 801358] | < 100 | < 100
CC1(C)CC(=O)C2=C(C1)NC1=C(CN=N1)[C@@]2(C)c1cccc(-c2ccccc2)c1 [US20250313563, Compound 801366] | > 5000 | > 5000
CC1(C)CC(=O)C2=C(C1)NC1=C(CN=N1)[C@]2(C)c1cccc(-c2ccccc2)c1 [US20250313563, Compound 801367] | 100 to 1000 | < 100
CC[C@@]1(c2cccc(-c3ccccc3)c2)C2=CN=NC2NC2=C1C(=O)CC(C)(C)C2 (some centres undefined) [US20250313563, Compound 801368] | 100 to 1000 | < 100
CCC1(c2cccc(C(F)(F)F)c2)C2=CN=NC2NC2=C1C(=O)CC(C)C2 (centres undefined) [US20250313563, Compound 801397] | 100 to 1000 | < 100
CCC1(c2ccccc2)C2=C(N=NC2)NC2=C1C(=O)CSC2 (centres undefined) [US20250313563, Compound 801406] | > 5000 | 1000 to 5000
CC[C@]1(c2cccc(-c3ccncc3)c2)C2=CN=NC2NC2=C1C(=O)CC(C)(C)C2 (some centres undefined) [US20250313563, Compound 801412] | > 5000 | > 5000
CC[C@@]1(c2cccc(-c3ccncc3)c2)C2=CN=NC2NC2=C1C(=O)CC(C)(C)C2 (some centres undefined) [US20250313563, Compound 801413] | 1000 to 5000 | 100 to 1000
CCC1(c2cccc(-c3cnn(C)c3)c2)C2=C(CC(C)(C)CC2=O)NC2N=NC(C(F)(F)F)=C21 (centres undefined) [US20250313563, Compound 801445] | < 100 | < 100
CCC1(c2cccc(OCCOC)c2)C2=CN=NC2NC2=C1C(=O)CC(C)(C)C2 (centres undefined) [US20250313563, Compound 801446] | > 1670 | 100 to 1000
CCC1(c2cccc(OC)c2)C2=CN=NC2NC2=C1C(=O)CC(C)(C)C2 (centres undefined) [US20250313563, Compound 801447] | 1000 to 5000 | 100 to 1000
CCC1(c2cccc(OC(C)C)c2)C2=CN=NC2NC2=C1C(=O)CC(C)(C)C2 (centres undefined) [US20250313563, Compound 801448] | 100 to 1000 | < 100
CCC1(c2cccc(C(F)(F)F)c2)C2=C(CC(C)(C)CC2=O)NC2N=NC(Br)=C21 (centres undefined) [US20250313563, Compound 802358] | < 100 | < 100
CC1(C)CC(=O)C2=C(C1)NC1N=NC(C(F)(F)F)=C1[C@@]21CCc2c(F)cccc21 (some centres undefined) [US20250313563, Compound 806568] | 100 to 1000 | 1000 to 5000
CC1(C)CC(=O)C2=C(C1)NC1N=NC(C(F)(F)F)=C1[C@]21CCc2c(F)cccc21 (some centres undefined) [US20250313563, Compound 806569] | < 100 | < 100
Cc1cccc2c1CCC21C2=C(N=NC2)NC2=C1C(=O)CC(C)(C)C2 (centres undefined) [US20250313563, Compound 806603] | 100 to 1000 | < 100
CCC1(c2cccc(N3CCNCC3)c2)C2=CN=NC2NC2=C1C(=O)CC(C)(C)C2 (centres undefined) [US20250313563, Compound 806604] | > 5000 | > 1670
CC1(C)CC(=O)C2=C(C1)NC1=C(CN=N1)C2(C)c1cc(Cl)ccc1Cl (centres undefined) [US20250313563, Compound 806605] | > 5000 | 1000 to 5000
CC[C@@]1(c2ccccc2)C2=CN=NC2NC2=C1C(=O)C[C@H](C(F)(F)F)C2 (some centres undefined) [US20250313563, Compound 806608] | > 1670 | 100 to 1000
CC[C@@]1(c2ccccc2)C2=CN=NC2NC2=C1C(=O)C[C@@H](C(F)(F)F)C2 (some centres undefined) [US20250313563, Compound 806609] | > 1670 | 100 to 1000
CC1(C)CC(=O)C2=C(C1)NC1N=NC=C1[C@@]21CCc2c(F)cccc21 (some centres undefined) [US20250313563, Compound 806632] | > 5000 | > 1670
